What was measured:
[1] = tested on: D-galactose-induced aging mice; assay: Morris water maze test in D-galactose-induced aging mice; assay type: in vivo; details: D-galactose 0.2 g/kg s.c.; test substance oral gavage once a day for 6 weeks
Description: (§1) A total of nine groups with 6 each animal experiments were conducted. The animals in groups 1-9 were: 1: blank control group, 2: D-galactose (0.2 g/kg), 3: D-galactose (0.2 g/kg)+vitamin E (100 mg/kg), 4: D-galactose (0.2 g/kg)+TM1-2 low dose (5 mg/kg), 5: D-galactose (0.2 g kg)+TM1-2 mid-dose group (20 mg/kg), 6: D-galactose (0.2 g/kg)+TM1-2 high dose group (50 mg/kg), 7: D-galactose (0.2 g/kg)+T1-11 low dose group (1 mg/Kg), 8: D-galactose (0.2 g/kg)+T1-11 high dose group (10 mg/kg), 9: T1-11 (10 mg/kg). D-galactose was treated by subcutaneous injection (0.2 g/kg body weight), and G. elata extract TM1-2, T1-11 and vitamin E were orally administrated (oral gavage). The test substances were treated once a day, continuing for 6 weeks. When administering, in addition to the blank control group, each group was continued to treat with 0.2 g/kg (body weight) D-galactose subcutaneously injected via back neck, and the blank control group was subcutaneously injected with physiological saline. The vitamin E group was used as a positive control group.
Furthermore, the memory learning ability of mice was evaluated using the Morris water maze test (Vorhees C V, et al. (2006)) (FIG. 7A and FIG. 7B).

SH-SY5Y cells = assay: SA-β-gal staining of senescence SH-SY5Y cells; assay type: cell-based; details: senescence SH-SY5Y cells treated for 24 hours
Description: SH-SY5Y cells (purchased from Taiwan and Bioresource Collection and Research Center (BCRC), 08C0066) was cultured in DMEM containing 10% fetal bovine serum, 100 U/ml penicillin and 100 µg/ml streptomycin in a carbon dioxide incubator. When SH-SY5Y cells were grown in a 100 mm culture dish to a fullness of 80%, subculture was carried out. […] Thus, the intracellular amount of SA-β-gal in the test cells were used as an indicator of cell senescence. These senescence cells were then used to perform the following aging-related cell experiments.
The senescence SH-SY5Y cells in embodiment 3 were treated with the G. elata crude extract TM1, the G. elata extract TM1-2 and N^6-(4-hydroxybenzyl) adenosine (T1-11) for 24 hours, then fixed with 4% formaldehyde, following by staining with SA-β-gal to evaluate the cell senescence level. […] Furthermore, the mechanism of cell senescence is currently known to be driven by two independent pathways, p53-p21 pathway and p16-Rb pathway. Both p21 and p16 are cyclin-dependent kinase inhibitors (CDKI), which prevent Rb from being phosphorylated so as to inhibit Rb. Consequently, the activity of E2F transcription factors is inhibited and the cell cycle is therefore blocked. p53, p63 and p73 can directly induce the activation of p21 protein, leading to arrest in cell cycle and cellular senescence.

catalase (CAT) = assay: Catalase activity in serum and brain tissue of D-galactose-treated animals; assay type: in vivo, mice; details: serum, cortex and hippocampus; galactose-induced animals
Description: as §1, with “group. After observing their behavior, the animals are intraperitoneally injected with […] 5-bromo-2′-deoxyuridine (BrdU) continuously for one week. Then the animals were sacrificed to take their brain tissue and blood. […]” for “group.”

[2] = tested on: D-galactose-induced aging mice; assay: Nesting test and burrowing test in D-galactose-induced aging mice; assay type: in vivo; details: D-galactose 0.2 g/kg s.c.; test substance oral gavage once a day for 6 weeks
Description: as §1, with “The vitamin E group was used as a positive control group.” left out
In the Nesting Test (Deacon R (2012), Deacon RM (2006)), mice were given nesting materials, and they made nests in the corners of the cage and stayed in the nest. By using the nature of mouse nesting, nest cotton swabs were given, the scores of completing nesting were calculated, and the weight of the remaining unbroken cotton was weighed to assess the degree of mouse aging (FIGS. 5A and 5B). […]

[3] = tested on: lipid peroxidation (malondialdehyde, MDA); assay: Lipid peroxidation in serum and brain tissue of D-galactose-treated animals; assay type: in vivo, mice; details: serum, cortex and hippocampus; galactose-induced animals
Description: as §1, with “group. After observing their behavior, the animals are intraperitoneally injected with […] 5-bromo-2′-deoxyuridine (BrdU) continuously for one week. Then the animals were sacrificed to take their brain tissue and blood. […]” for “group.”

[4] = tested on: glutathione peroxidase (GSH-Px); assay: Glutathione peroxidase in serum and brain tissue of D-galactose-treated animals; assay type: in vivo, mice; details: serum, cortex and hippocampus; galactose-induced animals
Description: as §1, with “group. After observing their behavior, the animals are intraperitoneally injected with […] 5-bromo-2′-deoxyuridine (BrdU) continuously for one week. Then the animals were sacrificed to take their brain tissue and blood. […]” for “group.”

[5] = tested on: BrdU and DCX-expressing cells in the hippocampus; assay: Neurogenesis markers BrdU and DCX in hippocampus of D-galactose-induced mice (immunostaining); assay type: in vivo
Description: as §1, with “The vitamin E group was used as a positive control group.” left out
After observing the behavior, the animals of Example 6 are intraperitoneally injected with […] 5-bromo-2′-deoxyuridine (BrdU) continuously for a week. […] The sections were immunohistochemically stained by first reacting with the first antibody, doublecortin (DCX) (purchased from Abcam) and then with a fluorescence-labeled secondary antibody (purchased from Jackson Labs Technologies, Inc). […]

[6] = tested on: glucose-6-phosphate dehydrogenase (G6PD); assay: Glucose-6-phosphate dehydrogenase in serum and brain tissue of D-galactose-treated animals; assay type: in vivo, mice; details: serum, cortex and hippocampus; galactose-induced animals
Description: as §1, with “group. After observing their behavior, the animals are intraperitoneally injected with […] 5-bromo-2′-deoxyuridine (BrdU) continuously for one week. Then the animals were sacrificed to take their brain tissue and blood. […]” for “group.”

[7] = tested on: p53, p16, p21 protein expression; assay: Cellular senescence related molecules (p53, p16, p21) in SH-SY5Y cells; assay type: cell-based
[8] = tested on: superoxide dismutase (SOD); assay: Superoxide dismutase activity in serum and brain tissue of D-galactose-treated animals; assay type: in vivo, mice; details: serum, cortex and hippocampus; galactose-induced animals
Description: as §1, with “group. After observing their behavior, the animals are intraperitoneally injected with […] 5-bromo-2′-deoxyuridine (BrdU) continuously for one week. Then the animals were sacrificed to take their brain tissue and blood. […]” for “group.”

[9] = tested on: gamma amino butyric acid (GABA) metabolism; details: An, et al (2003); cited from earlier work

Compound | cognitive behavioral deficit incl. memory learning ability; higher dose better improvement [1] | intracellular SA-β-gal (cell senescence level) (SH-SY5Y cells) | activity of catalase (CAT) (catalase (CAT)) | cognitive behavioral deficit: construction of nests and burrowing [2] | lipid peroxidation (malondialdehyde, MDA) [3] | level of glutathione peroxidation (GSH-Px) reduced by galactose [4] | expression of BrdU in the hippocampus [5] | expression of DCX in the hippocampus [5] | level of glucose-6-phosphate dehydrogenase (G6PD) reduced by galactose [6] | p53, p16, p21 protein expression [7] | activity of superoxide dismutase (SOD) [8] | metabolism of GABA in gerbil hippocampus [9]
OC[C@H]1O[C@@H](n2cnc3c(NCc4ccc(O)cc4)ncnc32)[C@H](O)[C@@H]1O [T1-11, N^6-(4-hydroxybenzyl) adenosine] | ameliorate cognitive behavioral deficit | significantly reduce SA-β-gal | significantly repaired the reduced activity | effectively ameliorate the animal cognitive behavioral deficit | significantly repaired | effectively reversed | ameliorate the reduced expression | ameliorate the reduced expression | effectively reversed | inhibition of p53, p16, p21 protein expression | significantly repaired the reduced activity | 
OCc1ccc(O[C@@H]2O[C@H](CO)[C@@H](O)[C@H](O)[C@H]2O)cc1 [gastrodin] |  |  |  |  |  |  |  |  |  |  |  | alter the metabolism of gamma amino butyric acid (GABA)

Reference: patent US20250352606A1, “Pharmaceutical Composition for Promoting Neurogenesis and Method of Utilizing Gastrodia Elata Extract or Adenosine Analog for Promoting Neurogenesis” (AXR Pharma Inc., priority 2019, published 2025)
